Assay results from patent US11273152B2, “TRPV2 antagonists” (Instituto de Medicina Molecular João Lobo Antunes, priority 2017, dated 2022).
Entries after “also recorded” stand apart in the source; their conditions may differ.

What was measured:
TRPV2 [1] = target: T1, TRPV2 (Homo sapiens, UniProt Q9Y5S1); experiment: Co-incubation experiments with cannabidiol (mode of binding); type: cell-based
T1 sequence (Q9Y5S1 1-764): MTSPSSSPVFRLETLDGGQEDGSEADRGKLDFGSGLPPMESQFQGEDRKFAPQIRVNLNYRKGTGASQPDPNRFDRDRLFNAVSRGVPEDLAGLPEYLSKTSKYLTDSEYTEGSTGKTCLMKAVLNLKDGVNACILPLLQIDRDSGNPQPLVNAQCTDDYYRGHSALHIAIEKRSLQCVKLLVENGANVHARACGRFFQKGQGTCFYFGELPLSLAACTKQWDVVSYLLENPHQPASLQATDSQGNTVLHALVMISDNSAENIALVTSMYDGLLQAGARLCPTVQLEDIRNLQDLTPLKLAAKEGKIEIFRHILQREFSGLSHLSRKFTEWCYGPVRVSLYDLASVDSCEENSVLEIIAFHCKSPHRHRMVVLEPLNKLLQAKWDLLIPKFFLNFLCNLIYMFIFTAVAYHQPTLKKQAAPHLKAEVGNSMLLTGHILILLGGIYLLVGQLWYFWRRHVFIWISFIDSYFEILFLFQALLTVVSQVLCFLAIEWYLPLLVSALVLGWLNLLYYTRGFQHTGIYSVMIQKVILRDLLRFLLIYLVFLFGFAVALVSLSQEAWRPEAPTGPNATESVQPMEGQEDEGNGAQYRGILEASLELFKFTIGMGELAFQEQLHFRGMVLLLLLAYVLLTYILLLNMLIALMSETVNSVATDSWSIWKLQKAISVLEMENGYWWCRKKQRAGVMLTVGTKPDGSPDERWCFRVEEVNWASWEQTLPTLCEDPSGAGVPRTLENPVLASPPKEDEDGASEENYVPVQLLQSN

TRPC1 = TRPC1 (Homo sapiens, UniProt P48995); experiment: Fluorescence cell-based assay, TRPC1; conditions: membrane potential dye, duplicate
Chain of TRPC1 (P48995 whole entry): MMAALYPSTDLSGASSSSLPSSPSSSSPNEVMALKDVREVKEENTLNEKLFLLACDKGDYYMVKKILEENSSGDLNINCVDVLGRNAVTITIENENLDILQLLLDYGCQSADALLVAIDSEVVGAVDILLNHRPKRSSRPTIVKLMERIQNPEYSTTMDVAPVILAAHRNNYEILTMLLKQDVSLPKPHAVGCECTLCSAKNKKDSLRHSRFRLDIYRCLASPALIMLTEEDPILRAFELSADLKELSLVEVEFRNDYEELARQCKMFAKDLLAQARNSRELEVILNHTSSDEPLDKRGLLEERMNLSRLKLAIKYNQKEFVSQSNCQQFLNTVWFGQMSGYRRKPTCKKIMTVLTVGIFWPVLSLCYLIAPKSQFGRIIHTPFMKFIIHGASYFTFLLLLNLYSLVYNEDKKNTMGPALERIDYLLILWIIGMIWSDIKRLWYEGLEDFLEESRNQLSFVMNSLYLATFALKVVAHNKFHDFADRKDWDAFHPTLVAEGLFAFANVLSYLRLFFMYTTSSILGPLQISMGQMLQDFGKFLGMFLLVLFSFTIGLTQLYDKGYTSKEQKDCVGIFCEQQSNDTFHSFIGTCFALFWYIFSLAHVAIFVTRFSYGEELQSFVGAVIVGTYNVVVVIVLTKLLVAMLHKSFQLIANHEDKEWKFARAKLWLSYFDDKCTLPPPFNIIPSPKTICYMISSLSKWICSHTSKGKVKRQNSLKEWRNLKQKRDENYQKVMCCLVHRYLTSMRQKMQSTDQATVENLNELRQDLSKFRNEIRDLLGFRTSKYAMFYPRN
Description: (§1) The assays were performed at SB Discovery (Glasgow, UK) on a fee-for-service basis. Human TRP cells were trypsinised, counted and seeded in black, clear-bottomed 96 well plates at a density of 50,000 cells per well in 100 μL volume and incubated overnight. Next day, the cells were loaded with calcium 5 dye or membrane potential dye. TRPV1-5, TRPA1, TRPM2, TRPM3, and TRPM8 were tested using the calcium 5 dye. TRPC1, TRPC3-7, and TRPM4-5 were tested using the membrane potential dye. Both dye solutions were made up in HEPES buffered Hank's balanced salt solution (HBSS). Dye solution (90 μL) was added to the wells and incubated at 37° C. for 1 hour. Test compounds and standard inhibitors (10 μL) were then added to the wells and incubated at room temperature for 10 minutes. The plates were then placed in the flexstation and fluorescence monitored every 1.52 seconds. After 20 seconds agonist was added and the fluorescence monitored for 2 minutes at 485 nm/525 nm and 530 nm/565 nm, Ex/Em, for the calcium 5 dye and the membrane potential dye respectively. Controls-TRPV1: capsazepine; TRPV2: tranilast; TRPV3: ruthenium red; TRPV4: ruthenium red; TRPV5: Gd^3+; TRPA1, ruthenium red; TRPC1: Gd^3+; TRPC3: Pyr3; TRPC4: ML 204; TRPC5: ML 204; TRPC6: ML 204; TRPC7: SKF 96365; TRPM2: 2-APB; TRPM3: Mef acid; TRPM4: clotrimazole; TRPM5: TPPO; TRPM8: 2-APB. […]

TRPV2 [2] = target: T1, TRPV2; experiment: Intracellular calcium imaging (Fura-2 AM) in HepG2 cells; type: cell-based; conditions: 1 at 5 μM
Description: Cells (ATCC) were grown to 50% confluency in DMEM (Gibco) supplemented with 10% FBS (Gibco), GlutaMax (Gibco), MEM and NEAA (Gibco), 4.5 g/L glucose and 0.11 g/L sodium pyruvate. Cells were seeded in μ-ibidi 8 well plates and transfected with TRPV2-RFP^34 (kindly gifted by Prof. Itaru Kojimu Gunma University, Japan). After 48 h of incubation, cells were subjected to calcium imaging. Intracellular calcium measurements were performed with Fura-2 AM (Life Technologies) and modified from previously described studies.^12 In short, 1 hour before the measurement, cells were loaded with 5 μM Fura-2-AM for 45 minutes. Cell medium was replaced by Tyrod's solution (119 mM NaCl, 5 mM KCl, 2 mM CaCl2, 2 mM MgCl2, 6 g/L glucose, 25 mM HEPES pH 7.4). Simultaneously, the respective treatment was added to the cells (final concentration of 1% DMSO (control), 5 μM piperlongumine and 10 μM tranilast) and cells were allowed to re-adjustment for 15 minutes. Fura-2 AM emissions from 340 nm and 380 nm excitation were recorded for 1 minute before TRPV2 was activated by addition of 4 μM or 20 μM cannabidiol (CBD). Image analysis was done using the MetaFluor Analyst software. The statistical analysis was performed with astatsa.com. After calcium imaging acquisition, the cells were immediately fixed with 4% paraformaldehyde for 15 min. […]

Huh-7 = experiment: Wound-healing scratch assay, Huh-7; type: cell-based
TRPM8 = TRPM8 (Homo sapiens, UniProt Q7Z2W7); experiment: Fluorescence cell-based assay, TRPM8; conditions: calcium 5 dye, duplicate
Chain of TRPM8 (Q7Z2W7 whole entry): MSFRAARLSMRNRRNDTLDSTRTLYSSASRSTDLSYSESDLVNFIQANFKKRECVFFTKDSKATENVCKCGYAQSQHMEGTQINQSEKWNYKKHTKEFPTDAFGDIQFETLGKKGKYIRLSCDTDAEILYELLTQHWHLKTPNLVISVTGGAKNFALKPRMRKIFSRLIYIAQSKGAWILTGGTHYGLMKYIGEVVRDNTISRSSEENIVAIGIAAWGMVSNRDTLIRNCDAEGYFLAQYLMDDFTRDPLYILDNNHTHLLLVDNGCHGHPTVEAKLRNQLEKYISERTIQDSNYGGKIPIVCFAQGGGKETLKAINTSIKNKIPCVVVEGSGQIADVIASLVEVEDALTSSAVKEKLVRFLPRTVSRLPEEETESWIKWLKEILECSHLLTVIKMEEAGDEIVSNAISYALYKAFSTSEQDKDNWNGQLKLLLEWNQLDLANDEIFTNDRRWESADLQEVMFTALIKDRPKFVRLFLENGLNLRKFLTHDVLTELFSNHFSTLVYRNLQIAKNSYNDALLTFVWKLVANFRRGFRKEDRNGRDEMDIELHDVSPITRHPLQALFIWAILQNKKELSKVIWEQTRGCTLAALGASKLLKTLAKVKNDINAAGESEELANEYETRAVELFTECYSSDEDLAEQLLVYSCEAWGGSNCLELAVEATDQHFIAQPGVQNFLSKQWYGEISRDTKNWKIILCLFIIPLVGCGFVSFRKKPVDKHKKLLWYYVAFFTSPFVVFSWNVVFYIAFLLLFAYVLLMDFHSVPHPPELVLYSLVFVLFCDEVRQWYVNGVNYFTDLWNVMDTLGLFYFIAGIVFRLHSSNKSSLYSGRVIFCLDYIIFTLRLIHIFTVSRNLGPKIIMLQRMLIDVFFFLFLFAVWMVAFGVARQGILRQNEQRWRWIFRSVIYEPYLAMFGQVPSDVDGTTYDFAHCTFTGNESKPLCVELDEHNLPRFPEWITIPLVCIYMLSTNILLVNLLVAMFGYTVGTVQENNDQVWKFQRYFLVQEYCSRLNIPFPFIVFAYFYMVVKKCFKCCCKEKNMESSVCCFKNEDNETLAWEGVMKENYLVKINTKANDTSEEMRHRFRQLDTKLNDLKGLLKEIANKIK
Description: as §1

chiru TRPV2 orthologue = experiment: Isothermal titration calorimetry, chiru TRPV2; type: binding; conditions: chiru TRPV2 constructs; 100 μM
TRPM5 = TRPM5 (Homo sapiens, UniProt Q9NZQ8); experiment: Fluorescence cell-based assay, TRPM5; conditions: membrane potential dye, duplicate
Chain of TRPM5 (Q9NZQ8 whole entry): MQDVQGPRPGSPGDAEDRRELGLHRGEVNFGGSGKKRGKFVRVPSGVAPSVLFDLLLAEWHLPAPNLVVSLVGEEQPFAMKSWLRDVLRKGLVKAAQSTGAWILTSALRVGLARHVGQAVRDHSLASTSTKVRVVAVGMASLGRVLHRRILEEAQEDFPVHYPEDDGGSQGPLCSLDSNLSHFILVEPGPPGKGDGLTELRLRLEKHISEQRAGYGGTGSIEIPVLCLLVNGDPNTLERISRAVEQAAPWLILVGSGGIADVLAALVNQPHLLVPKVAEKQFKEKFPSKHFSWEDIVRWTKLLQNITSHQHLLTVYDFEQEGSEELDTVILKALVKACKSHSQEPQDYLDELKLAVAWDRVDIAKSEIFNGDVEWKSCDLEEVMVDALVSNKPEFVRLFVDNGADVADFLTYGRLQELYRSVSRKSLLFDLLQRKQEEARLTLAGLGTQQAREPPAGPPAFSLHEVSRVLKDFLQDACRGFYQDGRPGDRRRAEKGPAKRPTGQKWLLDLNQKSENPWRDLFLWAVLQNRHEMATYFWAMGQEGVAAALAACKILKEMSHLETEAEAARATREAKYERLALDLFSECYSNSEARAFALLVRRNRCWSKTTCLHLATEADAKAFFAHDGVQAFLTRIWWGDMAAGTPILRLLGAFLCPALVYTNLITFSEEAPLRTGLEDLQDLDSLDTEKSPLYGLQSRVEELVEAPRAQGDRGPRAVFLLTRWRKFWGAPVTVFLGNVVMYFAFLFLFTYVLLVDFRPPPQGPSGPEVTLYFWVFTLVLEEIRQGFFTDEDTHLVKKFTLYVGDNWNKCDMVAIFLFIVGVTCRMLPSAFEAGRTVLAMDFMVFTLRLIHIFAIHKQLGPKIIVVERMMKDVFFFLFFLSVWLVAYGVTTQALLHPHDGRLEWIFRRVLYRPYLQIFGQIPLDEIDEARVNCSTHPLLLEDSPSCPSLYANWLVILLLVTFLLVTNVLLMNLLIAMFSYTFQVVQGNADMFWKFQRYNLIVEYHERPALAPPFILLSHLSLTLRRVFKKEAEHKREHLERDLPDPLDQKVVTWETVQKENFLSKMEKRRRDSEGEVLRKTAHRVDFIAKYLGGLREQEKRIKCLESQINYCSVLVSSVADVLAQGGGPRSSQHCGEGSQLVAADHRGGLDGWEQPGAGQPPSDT
Description: as §1

NCI-60 cancer cell lines = experiment: NCI-60 Human Tumor Cell Lines Screen; type: cell-based; conditions: Gl50 and IC50 -z scores; five concentrations
Description: Piperlongumine was submitted to the NCI-60 Human Tumor Cell Lines Screen and its activity was measured at five concentration levels (0.01, 0.1, 1, 10 and 100 μM) in 59 NCI-60 cell lines with four dose response parameters (Gl50, IC50, LC50 and TGI). The TRPV2 normalized gene expression (averaged probe intensities combined from five microarray platforms) in NCI-60 cell lines was downloaded from the CellMiner database ^36,37. The Spearman correlation was used to test the interdependence between TRPV2 expression levels and piperlongumine IC50 values against 57 cancer cell lines.

COc1cc(/C=C/C(=O)N2CCC=CC2=O)cc(OC)c1OC [Compound 1, piperlongumine]
Mode of antagonism (TRPV2 [1]; EC50 curves of cannabidiol with increasing concentrations of 1): non-competitive (allosteric) antagonism | Concentration of 1 above which apparent vmax of cannabidiol is reduced (TRPV2 [1]; Michaelis-Menten analysis): higher than 5 pM | IC50 (TRPC1): > 100 µM | Inhibition of CBD evoked calcium influx in HepG2 cells (TRPV2 [2]; CBD 4 μM): No statistically significant difference is observed between all samples | Inhibition of CBD evoked calcium influx in HepG2 cells (TRPV2 [2]; CBD 20 μM, 120 s post stimulation): significantly inhibited; also recorded: significant difference between control and 1 (p<0.01) | Cell migration, wound healing (Huh-7): reproducible | IC50 (TRPM8): > 100 µM | Binding by isothermal titration calorimetry (chiru TRPV2 orthologue): did not bind | IC50 (TRPM5): > 100 µM | Anti-proliferative activity across NCI-60, most sensitive tissues (NCI-60 cancer cell lines): blood, colon and skin cancer cell lines were found to be the most sensitive
